Results reported in article PMC10176470, “Engaging a Non-catalytic Cysteine Residue Drives Potent and Selective Inhibition of Caspase-6” (Journal of the American Chemical Society, 2023).
Read-outs that look alike come from different tables or passages of the source.

Key:
Type in all cases: cell-based
[1] = molecular target: proteins of HEK293T cells transiently overexpressing caspase-6 (Homo sapiens, UniProt O14979); conditions: exp_ref Probe; protein HNRNPDL (O14979); analysis C6
[2] = molecular target: proteins of HEK293T cells transiently overexpressing caspase-6 (Homo sapiens, UniProt O43707); conditions: protein ACTN4 (O43707)
[3] = molecular target: proteins of HEK293T cells transiently overexpressing caspase-6 (Homo sapiens, UniProt P00558); conditions: exp_ref Probe; protein PGK1 (P00558); analysis C6
[4] = molecular target: proteins of HEK293T cells transiently overexpressing caspase-6 (Homo sapiens, UniProt P02786); conditions: protein TFRC (P02786)
[5] = molecular target: proteins of HEK293T cells transiently overexpressing caspase-6 (Homo sapiens, UniProt P08865); conditions: exp_ref Probe; protein RPSA (P08865); analysis C6
[6] = molecular target: proteins of HEK293T cells transiently overexpressing caspase-6 (Homo sapiens, UniProt P23246); conditions: exp_ref Probe; protein SFPQ (P23246); analysis C6
[7] = molecular target: proteins of HEK293T cells transiently overexpressing caspase-6 (Homo sapiens, UniProt P34932); conditions: Probe; protein HSPA4 P34932
[8] = molecular target: proteins of HEK293T cells transiently overexpressing caspase-6 (Homo sapiens, UniProt P35908); conditions: Probe; protein KRT2 P35908
[9] = molecular target: proteins of HEK293T cells transiently overexpressing caspase-6 (Homo sapiens, UniProt P49189); conditions: exp_ref Probe; protein ALDH9A1 (P49189); analysis C6
[10] = molecular target: proteins of HEK293T cells transiently overexpressing caspase-6 (Homo sapiens, UniProt P52272); conditions: exp_ref Probe; protein HNRNPM (P52272); analysis C6
[11] = molecular target: proteins of HEK293T cells transiently overexpressing caspase-6 (Homo sapiens, UniProt P84103); conditions: Probe; protein SRSF3 P84103
[12] = molecular target: proteins of HEK293T cells transiently overexpressing caspase-6 (Homo sapiens, UniProt Q04917); conditions: Probe; protein YWHAH Q04917
[13] = molecular target: proteins of HEK293T cells transiently overexpressing caspase-6 (Homo sapiens, UniProt Q13200); conditions: protein PSMD2 (Q13200)
[14] = molecular target: T1, proteins of HEK293T cells transiently overexpressing caspase-6 (Homo sapiens, UniProt Q15942)
T1 sequence (Q15942 1-572): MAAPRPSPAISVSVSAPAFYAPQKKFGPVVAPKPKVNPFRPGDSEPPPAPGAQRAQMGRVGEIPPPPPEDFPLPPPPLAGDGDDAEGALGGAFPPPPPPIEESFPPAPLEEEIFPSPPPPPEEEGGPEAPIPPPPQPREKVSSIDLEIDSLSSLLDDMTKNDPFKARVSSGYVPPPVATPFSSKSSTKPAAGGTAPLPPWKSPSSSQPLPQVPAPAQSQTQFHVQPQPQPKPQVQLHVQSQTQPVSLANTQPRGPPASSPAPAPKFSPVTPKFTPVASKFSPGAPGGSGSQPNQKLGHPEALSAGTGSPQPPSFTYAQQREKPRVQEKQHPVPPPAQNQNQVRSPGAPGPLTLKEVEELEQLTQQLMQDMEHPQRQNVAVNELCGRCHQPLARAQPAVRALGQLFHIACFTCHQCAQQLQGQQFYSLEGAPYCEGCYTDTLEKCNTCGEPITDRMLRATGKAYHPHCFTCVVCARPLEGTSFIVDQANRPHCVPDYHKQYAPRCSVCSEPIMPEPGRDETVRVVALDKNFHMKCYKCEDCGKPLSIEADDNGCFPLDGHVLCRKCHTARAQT

[15] = molecular target: proteins of HEK293T cells transiently overexpressing caspase-6 (Homo sapiens, UniProt Q9H7Z7); conditions: protein PTGES2 (Q9H7Z7)
[16] = molecular target: proteins of HEK293T cells transiently overexpressing caspase-6 (Homo sapiens, UniProt Q9NZI8); conditions: Probe; protein IGF2BP1 Q9NZI8
[17] = molecular target: proteins of HEK293T cells transiently overexpressing caspase-6 (Homo sapiens, UniProt Q9P258); conditions: exp_ref Probe; protein RCC2 (Q9P258); analysis C6
[18] = molecular target: proteins of HEK293T cells transiently overexpressing caspase-6 (Homo sapiens, UniProt Q9UBE0); conditions: protein SAE1 (Q9UBE0); exp_ref Probe; analysis C6
[19] = molecular target: proteins of HEK293T cells transiently overexpressing caspase-6 (Homo sapiens, UniProt Q9Y2X3); conditions: protein NOP58 (Q9Y2X3); exp_ref Probe; analysis C6
[20] = molecular target: proteins of HEK293T cells transiently overexpressing caspase-6 (Homo sapiens, UniProt Q9Y5M8); conditions: exp_ref Probe; protein SRPRB (Q9Y5M8); analysis C6
[21] = molecular target: proteins of HEK293T cells transiently overexpressing caspase-6 (Homo sapiens, UniProt Q9Y6C9); conditions: protein MTCH2 (Q9Y6C9); exp_ref Probe; analysis C6
proteins of HEK293T cells transiently overexpressing caspase-6 (Homo sapiens, UniProt Q9Y6C9), sequence (Q9Y6C9 whole entry): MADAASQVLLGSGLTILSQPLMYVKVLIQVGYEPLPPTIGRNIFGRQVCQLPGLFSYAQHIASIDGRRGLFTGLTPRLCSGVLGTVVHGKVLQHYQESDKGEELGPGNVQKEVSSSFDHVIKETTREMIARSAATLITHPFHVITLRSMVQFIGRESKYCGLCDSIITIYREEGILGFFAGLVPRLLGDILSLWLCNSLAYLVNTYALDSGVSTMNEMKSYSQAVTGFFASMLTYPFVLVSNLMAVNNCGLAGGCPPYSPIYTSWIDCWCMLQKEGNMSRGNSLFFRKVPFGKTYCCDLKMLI

proteins of HEK293T cells transiently overexpressing caspase-6 (Homo sapiens, UniProt P02786), sequence (P02786 whole entry): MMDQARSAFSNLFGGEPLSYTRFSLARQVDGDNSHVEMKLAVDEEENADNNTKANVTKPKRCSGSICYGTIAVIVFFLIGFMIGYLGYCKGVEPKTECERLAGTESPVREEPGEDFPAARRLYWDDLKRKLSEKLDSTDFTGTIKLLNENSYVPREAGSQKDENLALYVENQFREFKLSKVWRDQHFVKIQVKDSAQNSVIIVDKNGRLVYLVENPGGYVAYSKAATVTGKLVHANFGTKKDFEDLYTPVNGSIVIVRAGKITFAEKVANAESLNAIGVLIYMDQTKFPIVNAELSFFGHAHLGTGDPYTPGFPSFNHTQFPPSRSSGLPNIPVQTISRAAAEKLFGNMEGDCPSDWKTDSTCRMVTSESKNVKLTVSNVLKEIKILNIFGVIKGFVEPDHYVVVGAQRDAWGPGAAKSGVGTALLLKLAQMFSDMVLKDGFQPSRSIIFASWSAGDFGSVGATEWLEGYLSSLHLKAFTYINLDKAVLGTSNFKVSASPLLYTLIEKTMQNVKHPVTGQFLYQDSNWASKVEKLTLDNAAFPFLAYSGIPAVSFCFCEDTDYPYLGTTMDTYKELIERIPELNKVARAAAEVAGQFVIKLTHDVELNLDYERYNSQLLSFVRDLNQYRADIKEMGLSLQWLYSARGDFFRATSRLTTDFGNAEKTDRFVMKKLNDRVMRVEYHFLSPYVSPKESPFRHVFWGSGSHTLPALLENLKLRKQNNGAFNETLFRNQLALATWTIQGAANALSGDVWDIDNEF
proteins of HEK293T cells transiently overexpressing caspase-6 (Homo sapiens, UniProt Q9H7Z7), sequence (Q9H7Z7 whole entry): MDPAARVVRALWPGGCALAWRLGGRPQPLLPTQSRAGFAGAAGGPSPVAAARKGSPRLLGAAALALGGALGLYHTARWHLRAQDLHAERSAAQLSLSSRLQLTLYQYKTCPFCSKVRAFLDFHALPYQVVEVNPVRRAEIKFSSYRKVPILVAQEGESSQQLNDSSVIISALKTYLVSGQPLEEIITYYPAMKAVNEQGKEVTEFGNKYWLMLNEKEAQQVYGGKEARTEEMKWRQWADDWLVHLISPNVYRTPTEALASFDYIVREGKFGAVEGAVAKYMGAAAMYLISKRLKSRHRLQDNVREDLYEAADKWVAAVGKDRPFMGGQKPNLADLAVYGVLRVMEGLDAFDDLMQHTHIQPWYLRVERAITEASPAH
proteins of HEK293T cells transiently overexpressing caspase-6 (Homo sapiens, UniProt Q13200), sequence (Q13200 whole entry): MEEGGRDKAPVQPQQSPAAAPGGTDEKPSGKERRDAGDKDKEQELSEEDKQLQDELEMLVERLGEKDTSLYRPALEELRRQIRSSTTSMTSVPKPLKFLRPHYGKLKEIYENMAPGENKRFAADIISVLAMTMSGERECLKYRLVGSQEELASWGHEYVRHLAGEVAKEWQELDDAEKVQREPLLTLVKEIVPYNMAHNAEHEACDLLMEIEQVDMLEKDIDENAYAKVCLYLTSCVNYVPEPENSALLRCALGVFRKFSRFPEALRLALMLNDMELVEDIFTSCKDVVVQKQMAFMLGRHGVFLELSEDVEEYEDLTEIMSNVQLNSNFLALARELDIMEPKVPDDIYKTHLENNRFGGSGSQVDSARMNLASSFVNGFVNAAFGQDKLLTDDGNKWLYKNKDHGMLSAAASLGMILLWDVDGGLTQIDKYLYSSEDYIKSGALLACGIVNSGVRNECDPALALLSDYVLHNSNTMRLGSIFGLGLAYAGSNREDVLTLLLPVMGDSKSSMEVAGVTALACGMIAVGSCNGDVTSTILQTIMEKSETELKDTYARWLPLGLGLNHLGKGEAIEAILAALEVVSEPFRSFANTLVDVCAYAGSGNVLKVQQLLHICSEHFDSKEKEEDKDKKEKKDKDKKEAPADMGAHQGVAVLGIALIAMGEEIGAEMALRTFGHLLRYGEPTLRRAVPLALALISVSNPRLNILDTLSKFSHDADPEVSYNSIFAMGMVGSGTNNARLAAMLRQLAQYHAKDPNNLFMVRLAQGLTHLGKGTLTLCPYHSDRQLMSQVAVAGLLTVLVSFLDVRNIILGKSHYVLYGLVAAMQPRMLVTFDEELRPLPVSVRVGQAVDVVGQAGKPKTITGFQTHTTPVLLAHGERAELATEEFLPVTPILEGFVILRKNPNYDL
proteins of HEK293T cells transiently overexpressing caspase-6 (Homo sapiens, UniProt O43707), sequence (O43707 whole entry): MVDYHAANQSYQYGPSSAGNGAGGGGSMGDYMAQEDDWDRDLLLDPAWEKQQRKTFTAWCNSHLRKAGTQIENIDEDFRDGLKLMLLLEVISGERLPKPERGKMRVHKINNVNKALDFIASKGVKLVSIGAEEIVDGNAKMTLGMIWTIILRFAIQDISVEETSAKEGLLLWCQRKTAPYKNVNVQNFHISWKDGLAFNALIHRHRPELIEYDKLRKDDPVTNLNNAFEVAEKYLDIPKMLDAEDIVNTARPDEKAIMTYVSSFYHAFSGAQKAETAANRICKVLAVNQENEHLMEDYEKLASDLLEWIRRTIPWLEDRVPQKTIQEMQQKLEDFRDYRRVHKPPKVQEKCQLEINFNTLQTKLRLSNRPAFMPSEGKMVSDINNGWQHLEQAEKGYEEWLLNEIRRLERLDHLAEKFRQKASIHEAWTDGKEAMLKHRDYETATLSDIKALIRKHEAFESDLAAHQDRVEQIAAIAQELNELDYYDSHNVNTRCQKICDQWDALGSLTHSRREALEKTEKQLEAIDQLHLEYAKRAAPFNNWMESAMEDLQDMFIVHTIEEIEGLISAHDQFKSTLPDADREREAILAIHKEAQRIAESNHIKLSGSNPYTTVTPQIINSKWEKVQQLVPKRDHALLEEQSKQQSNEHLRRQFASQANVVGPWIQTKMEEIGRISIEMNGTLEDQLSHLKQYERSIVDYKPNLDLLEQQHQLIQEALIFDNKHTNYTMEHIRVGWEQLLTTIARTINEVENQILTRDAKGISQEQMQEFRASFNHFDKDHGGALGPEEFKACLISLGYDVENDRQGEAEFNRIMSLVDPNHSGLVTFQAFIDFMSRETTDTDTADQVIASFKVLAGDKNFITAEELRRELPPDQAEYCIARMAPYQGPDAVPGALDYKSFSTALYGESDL
proteins of HEK293T cells transiently overexpressing caspase-6 (Homo sapiens, UniProt P23246), sequence (P23246 whole entry): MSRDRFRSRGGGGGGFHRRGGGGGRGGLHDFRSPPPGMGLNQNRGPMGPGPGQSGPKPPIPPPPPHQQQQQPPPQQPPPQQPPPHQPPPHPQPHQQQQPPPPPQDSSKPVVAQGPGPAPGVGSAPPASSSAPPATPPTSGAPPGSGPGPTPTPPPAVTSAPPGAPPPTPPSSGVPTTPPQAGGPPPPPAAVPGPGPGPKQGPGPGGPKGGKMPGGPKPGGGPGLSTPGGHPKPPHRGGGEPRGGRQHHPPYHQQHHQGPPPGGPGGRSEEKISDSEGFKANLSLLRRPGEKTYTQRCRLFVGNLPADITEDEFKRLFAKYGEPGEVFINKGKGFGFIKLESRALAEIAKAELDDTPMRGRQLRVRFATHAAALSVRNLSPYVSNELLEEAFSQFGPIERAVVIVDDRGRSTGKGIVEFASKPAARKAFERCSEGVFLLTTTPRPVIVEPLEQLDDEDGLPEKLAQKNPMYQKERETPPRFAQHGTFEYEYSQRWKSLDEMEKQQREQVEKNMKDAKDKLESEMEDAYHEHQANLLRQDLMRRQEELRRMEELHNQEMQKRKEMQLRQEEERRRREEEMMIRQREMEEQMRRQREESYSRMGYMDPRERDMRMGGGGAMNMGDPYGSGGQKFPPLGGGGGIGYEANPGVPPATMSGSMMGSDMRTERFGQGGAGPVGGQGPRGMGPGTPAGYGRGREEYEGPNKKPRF
proteins of HEK293T cells transiently overexpressing caspase-6 (Homo sapiens, UniProt Q9Y2X3), sequence (Q9Y2X3 whole entry): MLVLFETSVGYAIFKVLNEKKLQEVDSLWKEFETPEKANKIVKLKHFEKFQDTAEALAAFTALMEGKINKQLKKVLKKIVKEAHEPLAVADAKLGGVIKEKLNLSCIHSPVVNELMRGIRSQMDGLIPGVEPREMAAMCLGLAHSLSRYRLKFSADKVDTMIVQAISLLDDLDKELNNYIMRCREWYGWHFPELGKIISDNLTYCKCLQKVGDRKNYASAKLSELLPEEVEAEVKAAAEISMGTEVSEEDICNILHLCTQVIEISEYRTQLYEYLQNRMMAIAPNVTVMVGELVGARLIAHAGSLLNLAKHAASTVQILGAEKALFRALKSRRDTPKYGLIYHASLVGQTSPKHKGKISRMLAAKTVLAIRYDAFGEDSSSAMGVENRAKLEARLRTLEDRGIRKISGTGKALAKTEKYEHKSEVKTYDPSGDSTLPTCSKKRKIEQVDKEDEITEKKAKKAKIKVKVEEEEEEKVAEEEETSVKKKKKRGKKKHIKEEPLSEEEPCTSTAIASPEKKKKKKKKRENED
proteins of HEK293T cells transiently overexpressing caspase-6 (Homo sapiens, UniProt P49189), sequence (P49189 whole entry): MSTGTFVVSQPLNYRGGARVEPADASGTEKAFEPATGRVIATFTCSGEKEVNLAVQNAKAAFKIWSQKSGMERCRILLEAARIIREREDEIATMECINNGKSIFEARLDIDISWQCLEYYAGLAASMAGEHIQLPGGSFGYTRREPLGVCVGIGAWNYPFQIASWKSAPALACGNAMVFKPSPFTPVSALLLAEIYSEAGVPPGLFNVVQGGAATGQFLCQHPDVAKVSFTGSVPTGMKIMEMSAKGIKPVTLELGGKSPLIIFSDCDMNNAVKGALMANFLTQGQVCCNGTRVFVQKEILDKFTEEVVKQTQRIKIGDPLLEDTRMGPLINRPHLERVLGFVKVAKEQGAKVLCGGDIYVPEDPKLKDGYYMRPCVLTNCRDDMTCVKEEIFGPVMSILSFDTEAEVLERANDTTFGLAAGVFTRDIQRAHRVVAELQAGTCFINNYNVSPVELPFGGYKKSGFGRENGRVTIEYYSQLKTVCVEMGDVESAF

`C#CCOc1ccc([C@@H]2C[C@@H](C(=O)Nc3ccc(OC(F)(F)F)cc3)CN(S(=O)(=O)C=C)C2)cc1` (relative stereo) [13-t] was tested, and the enrich.exp.med [1] was -0.3286, the enrich.exp.med ([2]; exp_ref Probe, analysis C6) was 0.6607 and the enrich.exp.med.lin [2] was 1.581. The enrich.exp.med.log2 [2] was 0.6607, the enrich.exp.med [3] was 0.1871 and the enrich.exp.med ([4]; exp_ref Probe, analysis C6) was 0.8901. It also gave an enrich.exp.med.lin [4] of 1.853, an enrich.exp.med.log2 [4] of 0.8901 and an enrich.exp.med [5] of -0.2936. For the same compound, the enrich.exp.med [6] was -0.1094, the enrich.exp.med [7] was -1.079 and the enrich.exp.med [8] was -8.257. It also gave an enrich.exp.med [9] of 0.2139, an enrich.exp.med [10] of 0.2991 and an enrich.exp.med [11] of -0.7077. For the same compound, the enrich.exp.med [12] was -1.452, the enrich.exp.med ([13]; exp_ref Probe, analysis C6) was 1.027 and the enrich.exp.med.lin [13] was 2.037. The enrich.exp.med.log2 [13] was 1.027, the enrich.exp.med ([14]; Probe, protein ZYX Q15942) was -1.696 and the enrich.exp.med.lin ([14]; protein ZYX (Q15942)) was 0.3087. The enrich.exp.med.log2 ([14]; protein ZYX (Q15942)) was -1.696, the enrich.exp.med.lin [15] was 8.188 and the enrich.exp.med.log2 [15] was 3.034. The enrich.exp.med.lin ([15]; Expt Probe, analysis C6) was 8.188, the enrich.exp.med.log2 ([15]; Expt Probe, analysis C6) was 3.034 and the enrich.exp.med ([15]; exp_ref Probe, analysis C6) was 3.034. It also gave an enrich.exp.med [16] of -0.7898, an enrich.exp.med [17] of 0.2232 and an enrich.exp.med [18] of 1.338. The enrich.exp.med [19] was 1.504, the enrich.exp.med [20] was 0.6428 and the enrich.exp.med [21] was 1.32.
